Here are results for one compound from patent US20250043285A1, “Mammalian ATG8 Proteins and ATG9A Direct Sealing of Autophagosomal Membranes” (UNM Rainforest Innovations, priority 2023, published 2025).

SMILES strings stand for the structures. Entries after “also recorded” stand apart in the source; their conditions may differ.

Test [1] relates to HeLa cells stably expressing HT-LC3B (LC3B^+ membranes including autophagosomes). The test is described as follows: HT-LC3B MIL/MPL assay by high content microscopy (autophagic membrane sealing). It is filed as cell-based. On the procedure:
HCM: MIL/MPL assay for assessment of autophagic membrane sealing. HaloTag-LC3B stable cell lines were seeded in 96 well plate at the density of 8,000 cells/well. After 18-24 h cells were induced for autophagy (EBSS for 90 min) or mitophagy (20 μM CCCP for 6 h). After induction, cells were incubated with Membrane Impermeant Ligand (MIL: Alexa Fluor-660 663Ex/690Em, 1 μM, Promega, G8471) prepared in 1×MAS buffer (220 mM mannitol, 70 mM sucrose, 10 mM KH2PO4, 5 mM MgCl2, 2 mM HEPES, 1 mM EGTA, from Sigma) containing XF-PMP (Agilent; 102504-100, 1.5 nM for Huh7 and 4 nM for HeLa cells) at 37° C. for 15 min. Cells were washed twice with 1×PBS and fixed with 4% paraformaldehyde (PFA, Sigma) in PBS for 5 min at RT. Cells were again washed twice with 1×PBS and incubated with Membrane-Permeant Ligand (MPL: TMR 5 μM, 555Ex/585Em, Promega, G8251) for 30 min at RT. Cells were washed once with 1×PBS and stained with Hoechst 33342 (Thermo Scientific, H3570, 1:1000) for 10 min at RT. Cells were washed twice and plate was scanned by High Content Microscopy (HCM) for automated image acquisition and quantification, iDEV software (Thermo) in 96-well plates^5. To test the role of mATG8s in autophagosome closure, we used the previously described strategy^41 employing stable cell lines expressing HT-LC3B, used to assess autophagosomal closure^41, 42, 45. We adapted this assay for high content microscopy (HCM) to allow unbiased operator-independent image collection, object identification and quantification, as previously established^30, 75 (FIG. 1C). […] The plates were scanned to quantify MPL^+ (sealed) and MIL^+ (unsealed) autophagosomes and any additional LC3B^+ structures, and data (quantitative HCM) presented as the number of MIL^+ or MPL^+ profiles/cell and their ratios (MIL/MPL) (FIG. 1D). MIL^+MPL^+ profiles were also observed but represented a very small fraction (<5%) and were not differentiated in quantifications.

Test [2] deals with Huh7^WT and Huh7^ATG9AKO cells. The test is described as follows: Western blot of Parkin and COX-II under CCCP-induced mitophagy. It is filed as cell-based. As to conditions: BafA1 100 nM. From the text: 13A. Schematic representation of proximity biotinylation proteomics (process stages) for LC MS/MS identification of APEX2-ATG9A partners in cells subjected to EBSS-induced autophagy and CCCP-induced mitophagy. 13B, List of ATG9A's key ESCRTs interactors and their peptide counts. 13C, HeLa^WT and HeLa^ATG9AKO cell line stably expressing YFP-Parkin were induced for mitophagy by CCCP or Olygomycin A and Antimycin A (OA). HCM was used to quantify mitophagy by determining remaining mtDNA puncta per cell. Blue squares, HeLa^WT stably expressing YFP-Parkin; red squares, HeLa^ATG9AKO stably expressing YFP-Parkin. 13D, HCM images illustrating mtDNA (red mask) in HeLa^WT and HeLa^ATG9AKO cells stably expressing YFP-Parkin. 13E, Western blot analysis of Huh7^WT and Huh7^ATG9AKO cells, under control conditions (full medium) or subjected to CCCP-induced mitophagy. […] 13G, Western blot analysis of LC3B lipidation in control and CCCP-induced mitophagy condition in Huh7^ATG9AWT or Huh7^ATG9AKO. 13H, Quantification of LC3B dots in Huh7^WT and Huh7^ATG9AKO cells under control conditions or subjected to CCCP-induced mitophagy. […] 13J,13K Quantification of p62 and NDP52 levels in control and proteinase K-treated samples. Statistical significance was determined by one-way ANOVA followed by Tukey's multiple comparison test, P<0.01. […]

`CO/C1=C\C(C)=C\[C@@H](C)[C@@H](O)[C@@H](C)C/C(C)=C/C=C/[C@H](OC)[C@@H]([C@@H](C)[C@@H](O)[C@H](C)[C@@]2(O)C[C@@H](O)[C@H](C)[C@@H](C(C)C)O2)OC1=O` [BafA1, Bafilomycin A1]: the “MPL^+ (sealed) profiles/cell” value in test [1] (HeLa^HexaKO HT-LC3B cells, starved in EBSS 90 min, 100 nM BafA1) is listed as “could not be enhanced by BafA1 treatment”; in test [1] (HeLa^HexaKO, HeLa^LC3TKO and HeLa^GABATKO HT-LC3B cells, EBSS, 100 nM BafA1) it was “no detectable further MPL^+ increase”; in test [1] (HeLa^WT HT-LC3B cells, starved in EBSS 90 min, 100 nM BafA1, vs EBSS alone), “further elevated; also recorded: further increased in the presence of BafA1”. Besides, the “Parkin and COX-II levels (immunoblot)” value in test [2] is “accumulation of Parkin and COX-II”.
